Measurements as given in patent US12559529B2, “NPY2 receptor agonists” (Boehringer Ingelheim International GmbH, priority 2019, dated 2026).

target: T1, Human Neuropeptide Y2 Receptor (Homo sapiens, UniProt P49146); assay: Radioligand binding competition assay (RLB); details: Table 3; human 125I-PYY (1-36) 0.02 nM, Y2 receptor membranes; read-out: Ki
T1 construct: purchased CHEMICON HTS066M
T1 sequence (P49146 1-381): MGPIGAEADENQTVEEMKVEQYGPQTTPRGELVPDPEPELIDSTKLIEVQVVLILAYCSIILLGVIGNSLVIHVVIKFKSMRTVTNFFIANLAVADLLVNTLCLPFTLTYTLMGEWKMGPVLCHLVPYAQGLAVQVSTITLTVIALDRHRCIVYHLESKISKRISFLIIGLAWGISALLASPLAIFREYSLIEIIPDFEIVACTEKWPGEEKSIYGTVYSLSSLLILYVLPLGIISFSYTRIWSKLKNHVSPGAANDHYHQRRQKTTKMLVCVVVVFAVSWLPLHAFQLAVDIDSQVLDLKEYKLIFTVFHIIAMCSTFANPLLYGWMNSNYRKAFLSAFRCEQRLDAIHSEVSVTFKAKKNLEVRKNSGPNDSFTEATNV
Procedure, shortened: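 Membranes from cells expressing human Y2 receptor (0.5 μg protein/well) were incubated with radioligand and serially diluted peptides in 50 mM HEPES, 5 mM MgCl2, 1 mM CaCl2, 0.2% ovalbumin, pH 7.4, for 2 h at room temperature with shaking. Bound radioactivity was collected by filtration and counted; IC50 from sigmoidal nonlinear regression.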

Row | Structure (SMILES) | Ki
1 | CC(C)CC(=O)N[C@@H](C)C(=O)N1CCC[C@H]1C(=O)N[C@@H](CCC(=O)O)C(=O)N[C@@H](CCCCNC(=O)COCCOCCNC(=O)COCCOCCNC(=O)CC[C@H](NC(=O)CCCCCCCCCCCCCCCCC(=O)O)C(=O)O)C(=O)N1CCC[C@H]1C(=O)N[C@@H](CCC(=O)O)C(=O)N[C@@H](CCC(=O)O)C(=O)N[C@@H](CC(=O)O)C(=O)N[C@@H](C)C(=O)N[C@@H](CO)C(=O)N1CCC[C@H]1C(=O)N[C@@H](CCC(=O)O)C(=O)N[C@@H](CCC(=O)O)C(=O)N[C@@H](CC(C)C)C(=O)N[C@@H](CCC(N)=O)C(=O)N[C@@H](CCCNC(=N)N)C(=O)N[C@@H](Cc1ccc(O)cc1)C(=O)N[C@@H](Cc1ccc(O)cc1)C(=O)N[C@H](C(=O)N[C@@H](CO)C(=O)N[C@H](C(=O)N[C@@H](CCCNC(=N)N)C(=O)N[C@@H](Cc1c[nH]cn1)C(=O)N[C@@H](Cc1ccc(O)cc1)C(=O)N[C@@H](Cc1ccc(O)cc1)C(=O)N[C@@H](CC(N)=O)C(=O)N[C@@H](Cc1c[nH]c2ccccc12)C(=O)N[C@@H](CC(C)C)C(=O)N[C@H](C(=O)N[C@@H](CCCNC(=N)N)C(=O)N[C@@H](CCC(N)=O)C(=O)N[C@@H](CCCNC(=N)N)C(=O)N[C@@H](Cc1ccc(O)cc1)C(N)=O)[C@@H](C)O)[C@@H](C)O)C(C)C [Compound 34, N{alpha-4}-(3-methylbutanoyl)-N{epsilon-7}-[2-(2-{2-[2-(2-{2-[(4S)-4-carboxy-4-(17-carboxyheptadecanamido)butanamido]ethoxy}ethoxy)acetamido]ethoxy}ethoxy)acetamido]-[4A,7K,9E,18Q,22V,24T,28Y,30W,31L]hPYY (4-36)] | 6.4 nM
2 | CC(C)CC(=O)N[C@@H](C)C(=O)N1CCC[C@H]1C(=O)N[C@@H](CCC(=O)O)C(=O)N[C@@H](CCCCNC(=O)COCCOCCNC(=O)COCCOCCNC(=O)CC[C@H](NC(=O)CCCCCCCCCCCCCCCCC(=O)O)C(=O)O)C(=O)N[C@@H](C)C(=O)N[C@@H](CCC(=O)O)C(=O)N[C@@H](CCC(=O)O)C(=O)N[C@@H](CC(=O)O)C(=O)N[C@@H](C)C(=O)N[C@@H](CCC(=O)O)C(=O)N1CCC[C@H]1C(=O)N[C@@H](CCC(=O)O)C(=O)N[C@@H](CCC(=O)O)C(=O)N[C@@H](CC(C)C)C(=O)N[C@@H](CCC(N)=O)C(=O)N[C@@H](CCCNC(=N)N)C(=O)N[C@@H](Cc1ccc(O)cc1)C(=O)N[C@@H](Cc1ccc(O)cc1)C(=O)N[C@H](C(=O)N[C@@H](CO)C(=O)N[C@@H](CC(C)C)C(=O)N[C@@H](CCCNC(=N)N)C(=O)N[C@@H](Cc1c[nH]cn1)C(=O)N[C@@H](Cc1ccc(O)cc1)C(=O)N[C@@H](Cc1ccc(O)cc1)C(=O)N[C@@H](CC(N)=O)C(=O)N[C@@H](Cc1c[nH]c2ccccc12)C(=O)N[C@@H](CC(C)C)C(=O)N[C@H](C(=O)N[C@@H](CCCNC(=N)N)C(=O)N[C@@H](CCC(N)=O)C(=O)N[C@@H](CCCNC(=N)N)C(=O)N[C@@H](Cc1ccc(O)cc1)C(N)=O)[C@@H](C)O)C(C)C [Compound 36, N{alpha-4}-(3-methylbutanoyl)-N{epsilon-7}-[2-(2-{2-[2-(2-{2-[(4S)-4-carboxy-4-(17-carboxyheptadecanamido)butanamido]ethoxy}ethoxy)acetamido]ethoxy}ethoxy)acetamido]-[4A,7K,8A,9E,13E,18Q,22V,28Y,30W,31L]hPYY (4-36)] | 10.6 nM

The next compounds have a lower Ki than those just listed; values first:

Row | Ki | Structure (SMILES)
3 | 1.21 nM | CC(C)CC(=O)N[C@@H](C)C(=O)N1CCC[C@H]1C(=O)N[C@@H](CCC(=O)O)C(=O)N[C@@H](CCCCNC(=O)COCCOCCNC(=O)COCCOCCNC(=O)CC[C@H](NC(=O)CCCCCCCCCCCCCCCCC(=O)O)C(=O)O)C(=O)N1CCC[C@H]1C(=O)N[C@@H](CCC(=O)O)C(=O)N[C@@H](CCC(=O)O)C(=O)N[C@@H](CC(=O)O)C(=O)N[C@@H](C)C(=O)N[C@@H](C)C(=O)N1CCC[C@H]1C(=O)N[C@@H](CCC(=O)O)C(=O)N[C@@H](CCC(=O)O)C(=O)N[C@H](C(=O)N[C@@H](CCC(N)=O)C(=O)N[C@@H](CCCNC(=N)N)C(=O)N[C@@H](Cc1ccc(O)cc1)C(=O)N[C@@H](Cc1ccc(O)cc1)C(=O)N[C@H](C(=O)N[C@@H](CO)C(=O)N[C@@H](CC(C)C)C(=O)N[C@@H](CCCNC(=N)N)C(=O)N[C@@H](Cc1c[nH]cn1)C(=O)N[C@@H](Cc1ccc(O)cc1)C(=O)N[C@@H](Cc1ccc(O)cc1)C(=O)N[C@@H](CC(N)=O)C(=O)N[C@@H](Cc1c[nH]c2ccccc12)C(=O)N[C@@H](CC(C)C)C(=O)N[C@H](C(=O)N[C@@H](CCCNC(=N)N)C(=O)N[C@@H](CCC(N)=O)C(=O)N[C@@H](CCCNC(=N)N)C(=O)N[C@@H](Cc1ccc(O)cc1)C(N)=O)[C@@H](C)O)C(C)C)[C@@H](C)O [Compound 35, N{alpha-4}-(3-methylbutanoyl)-N{epsilon-7}-[2-(2-{2-[2-(2-{2-[(4S)-4-carboxy-4-(17-carboxyheptadecanamido)butanamido]ethoxy}ethoxy)acetamido]ethoxy}ethoxy)acetamido]-[4A,7K,9E,13A,17T,18Q,22V,28Y,30W,31L]hPYY (4-36)]
4 | 4.85 nM | CC(C)CC(=O)N[C@@H](C)C(=O)N1CCC[C@H]1C(=O)N[C@@H](CCC(=O)O)C(=O)N[C@@H](CCCCNC(=O)COCCOCCNC(=O)COCCOCCNC(=O)CC[C@H](NC(=O)CCCCCCCCCCCCCCCCC(=O)O)C(=O)O)C(=O)N1CCC[C@H]1C(=O)N[C@@H](CCC(=O)O)C(=O)N[C@@H](CCC(=O)O)C(=O)N[C@@H](CC(=O)O)C(=O)N[C@@H](C)C(=O)N[C@@H](CO)C(=O)N1CCC[C@H]1C(=O)N[C@@H](CCC(=O)O)C(=O)N[C@@H](CCC(=O)O)C(=O)N[C@H](C(=O)N[C@@H](CCC(N)=O)C(=O)N[C@@H](CCCNC(=N)N)C(=O)N[C@@H](Cc1ccc(O)cc1)C(=O)N[C@@H](CCC(=O)O)C(=O)N[C@H](C(=O)N[C@@H](CO)C(=O)N[C@@H](CC(C)C)C(=O)N[C@@H](CCCNC(=N)N)C(=O)N[C@@H](Cc1c[nH]cn1)C(=O)N[C@@H](Cc1ccc(O)cc1)C(=O)N[C@@H](Cc1ccc(O)cc1)C(=O)N[C@@H](CC(N)=O)C(=O)N[C@@H](Cc1c[nH]c2ccccc12)C(=O)N[C@@H](CC(C)C)C(=O)N[C@H](C(=O)N[C@@H](CCCNC(=N)N)C(=O)N[C@@H](CCC(N)=O)C(=O)N[C@@H](CCCNC(=N)N)C(=O)N[C@@H](Cc1ccc(O)cc1)C(N)=O)[C@@H](C)O)C(C)C)[C@@H](C)O [Compound 37, N{alpha-4}-(3-methylbutanoyl)-N{epsilon-7}-[2-(2-{2-[2-(2-{2-[(4S)-4-carboxy-4-(17-carboxyheptadecanamido)butanamido]ethoxy}ethoxy)acetamido]ethoxy}ethoxy)acetamido]-[4A,7K,9E,17T,18Q,21E,22V,28Y,30W,31L]hPYY (4-36)]
5 | 1.21 nM | CC(C)CC(=O)N[C@@H](C)C(=O)N1CCC[C@H]1C(=O)N[C@@H](CCC(=O)O)C(=O)N[C@@H](CCCCNC(=O)COCCOCCNC(=O)COCCOCCNC(=O)CC[C@H](NC(=O)CCCCCCCCCCCCCCCCC(=O)O)C(=O)O)C(=O)N1CCC[C@H]1C(=O)N[C@@H](CCC(=O)O)C(=O)N[C@@H](CCC(=O)O)C(=O)N[C@@H](CC(=O)O)C(=O)N[C@@H](C)C(=O)N[C@H](C(=O)N1CCC[C@H]1C(=O)N[C@@H](CCC(=O)O)C(=O)N[C@@H](CCC(=O)O)C(=O)N[C@H](C(=O)N[C@@H](CCC(N)=O)C(=O)N[C@@H](CCCNC(=N)N)C(=O)N[C@@H](Cc1ccc(O)cc1)C(=O)N[C@@H](Cc1ccc(O)cc1)C(=O)N[C@H](C(=O)N[C@@H](CO)C(=O)N[C@@H](CC(C)C)C(=O)N[C@@H](CCCNC(=N)N)C(=O)N[C@@H](Cc1c[nH]cn1)C(=O)N[C@@H](Cc1ccc(O)cc1)C(=O)N[C@@H](Cc1ccc(O)cc1)C(=O)N[C@@H](CC(N)=O)C(=O)N[C@@H](Cc1c[nH]c2ccccc12)C(=O)N[C@@H](CC(C)C)C(=O)N[C@H](C(=O)N[C@@H](CCCNC(=N)N)C(=O)N[C@@H](CCC(N)=O)C(=O)N[C@@H](CCCNC(=N)N)C(=O)N[C@@H](Cc1ccc(O)cc1)C(N)=O)[C@@H](C)O)C(C)C)[C@@H](C)O)[C@@H](C)O [Compound 40, N{alpha-4}-(3-methylbutanoyl)-N{epsilon-7}-[2-(2-{2-[2-(2-{2-[(4S)-4-carboxy-4-(17-carboxyheptadecanamido)butanamido]ethoxy}ethoxy)acetamido]ethoxy}ethoxy)acetamido]-[4A,7K,9E,13T,17T,18Q,22V,28Y,30W,31L]hPYY (4-36)]
